{"source": "paper PMC9712021", "about": "(Advances in Pharmacological and Pharmaceutical Sciences, 2022)", "key": {"Artemia salina": {"test_system": "Artemia salina", "assay": "Artemia salina bioassay (brine shrimp lethality bioassay)", "method": "This test was carried out with a slight modification, as described by Amaral et al.. Briefly, shrimp cysts were incubated in a small aquarium containing a brine solution (50 mg of cysts and 300 mL of brine) for 48 h with direct lighting. […] […] In the negative (NC) and positive (PC) control groups, saline solution and potassium dichromate (K2Cr2O7) were added, respectively. The concentration range used in the case of the PC group was 31.25 to 500 μg/mL."}, "[1]": {"assay": "Hemolytic activity in mice erythrocytes", "type": "cell-based, Mus musculus", "conditions": "male, Swiss albino, mouse, mouse erythrocyte suspension, 37°C, 2 h", "method": "(§1) This test was performed on adult Swiss albino mouse (Mus musculus) erythrocytes. The mouse was collected from the Central Animal House of the Federal University of Piaui, Brazil. It was allowed free access to standard food and water ad libitum and was kept under controlled lighting (12 h dark/light cycles) at 24 ± 2°C. Blood was collected from the retro-orbital plexus of the mouse (male, 24 gm body weight). Hemolytic activity in mouse erythrocytes was performed, according to Jamialahmadi et al.."}, "mouse erythrocytes": {"test_system": "mouse erythrocytes", "assay": "Hemolytic activity in mice erythrocytes", "type": "cell-based", "method": "as §1"}, "[2]": {"test_system": "S. cerevisiae EG103 (SODWT)", "assay": "S. cerevisiae central disc test, oxidative damage, strain SODWT", "type": "cell-based, Saccharomyces cerevisiae", "excerpt": "(§2) The central disc test was done according to the method presented by Islam et al.. Superoxide dismutase (CuZnSOD-Sod1) is a cytosolic enzyme that is faulty in strain EG118, whereas mitochondrial SOD is faulty in strain EG110 (MnSOD-Sod2). The strain EG133 has both Sod1 and Sod2 defects, while EG223 has a cytosolic catalase deficiency (Cat1). While EG103 is a competent strain that is identical to the wild-type (SODWT), EG is a dual isogenic strain for the Sod1 and Cat1 genes."}, "[3]": {"test_system": "S. cerevisiae EG118 (Sod1∆)", "assay": "S. cerevisiae central disc test, oxidative damage, strain Sod1∆", "type": "cell-based, Saccharomyces cerevisiae", "excerpt": "as §2"}, "[4]": {"test_system": "S. cerevisiae EG110 (Sod2∆)", "assay": "S. cerevisiae central disc test, oxidative damage, strain Sod2∆", "type": "cell-based, Saccharomyces cerevisiae", "excerpt": "as §2"}, "[5]": {"test_system": "S. cerevisiae EG133 (Sod1∆Sod2∆)", "assay": "S. cerevisiae central disc test, oxidative damage, strain Sod1∆Sod2∆", "type": "cell-based, Saccharomyces cerevisiae", "excerpt": "as §2"}, "[6]": {"test_system": "S. cerevisiae EG223 (Cat1∆)", "assay": "S. cerevisiae central disc test, oxidative damage, strain Cat1∆", "type": "cell-based, Saccharomyces cerevisiae", "excerpt": "as §2"}, "[7]": {"test_system": "S. cerevisiae EG (Sod1∆Cat1∆)", "assay": "S. cerevisiae central disc test, oxidative damage, strain Sod1∆Cat1∆", "type": "cell-based, Saccharomyces cerevisiae", "excerpt": "as §2"}, "[8]": {"test_system": "S. cerevisiae strains (SODWT, Sod1Δ, Sod2Δ, Cat1Δ, Sod1/Sod2Δ, Cat1Δ/Sod1Δ)", "assay": "In vivo antioxidant (S. cerevisiae) test, all strains tested", "type": "cell-based, Saccharomyces cerevisiae", "excerpt": "as §2"}}}
{"smiles": "CC(C)=CCC/C(C)=C\\CO", "note": "[Nerol, cis-3,7-dimethyl-2,6-octadien-1]", "values": [{"measurement": "Artemia Salina mortality", "setting": "Artemia salina; 62.5 μg/mL, 48 h of exposure", "value": 100, "unit": "%"}, {"measurement": "cytotoxic effects in the A. Salina test", "setting": "Artemia salina; 31.25–500 μg/mL", "value": "significant cytotoxic effects"}, {"measurement": "hemolysis at 2 h, 31.25 μg/mL", "setting": "[1]; pH 7.4, 31.25 μg/mL", "value": "2.67 ± 0.35", "unit": "%"}, {"measurement": "hemolysis at 2 h, 62.5 μg/mL", "setting": "[1]; pH 7.4, 62.5 μg/mL", "value": "4.49 ± 0.26", "unit": "%"}, {"measurement": "hemolysis at 2 h, 125 μg/mL", "setting": "[1]; pH 7.4, 125 μg/mL", "value": "5.12 ± 1.05", "unit": "%"}, {"measurement": "hemolysis at 2 h, 250 μg/mL", "setting": "[1]; pH 7.4, 250 μg/mL", "value": "6.54 ± 1.78", "unit": "%"}, {"measurement": "hemolysis at 2 h, 500 μg/mL", "setting": "[1]; pH 7.4, 500 μg/mL", "value": 39.1, "unit": "%"}, {"measurement": "Hemolysis (%)", "setting": "mouse erythrocytes; 500 μg/mL, 37°C, 2 h", "value": "34.95 ± 4.74^∗ %"}, {"measurement": "cytotoxic effects in the hemolysis test", "setting": "mouse erythrocytes; 31.25–500 μg/mL", "value": "significant cytotoxic effects"}, {"measurement": "oxidative damage", "setting": "[2]; 0.9 μg/mL", "value": "1.50 ± 0.70"}, {"measurement": "oxidative damage", "setting": "[2]; 1.8 μg/mL", "value": "1.50 ± 0.70"}, {"measurement": "oxidative damage", "setting": "[2]; 7.2 μg/mL", "value": "2.00 ± 1.41"}, {"measurement": "oxidative damage", "setting": "[2]; 14.4 μg/mL", "value": "2.50 ± 0.70"}, {"measurement": "oxidative damage", "setting": "[2]; 32 μg/mL", "value": "2.00 ± 1.41"}, {"measurement": "oxidative damage", "setting": "[2]; 64 μg/mL", "value": "2.00 ± 1.41"}, {"measurement": "oxidative damage", "setting": "[2]; 128 μg/mL", "value": "1.00 ± 0.28"}, {"measurement": "oxidative damage", "setting": "[2]; 3.6 mg/mL", "value": "1.00 ± 0.28"}, {"measurement": "oxidative damage", "setting": "[2]; 256 mg/mL", "value": "2.00 ± 0.24"}, {"measurement": "oxidative damage", "setting": "[2]; 500 mg/mL", "value": "1.00 ± 0.28"}, {"measurement": "oxidative damage", "setting": "[3]; 0.9 μg/mL", "value": "1.50 ± 0.70"}, {"measurement": "oxidative damage", "setting": "[3]; 1.8 μg/mL", "value": "2.00 ± 1.41"}, {"measurement": "oxidative damage", "setting": "[3]; 7.2 μg/mL", "value": "3.00 ± 1.41"}, {"measurement": "oxidative damage", "setting": "[3]; 14.4 μg/mL", "value": "2.50 ± 0.70"}, {"measurement": "oxidative damage", "setting": "[3]; 32 μg/mL", "value": "3.50 ± 0.70"}, {"measurement": "oxidative damage", "setting": "[3]; 64 μg/mL", "value": "1.50 ± 0.70"}, {"measurement": "oxidative damage", "setting": "[3]; 128 μg/mL", "value": "2.00 ± 1.41"}, {"measurement": "oxidative damage", "setting": "[3]; 3.6 mg/mL", "value": "2.50 ± 0.70"}, {"measurement": "oxidative damage", "setting": "[3]; 256 mg/mL", "value": "2.50 ± 0.70"}, {"measurement": "oxidative damage", "setting": "[3]; 500 mg/mL", "value": "2.00 ± 0.24"}, {"measurement": "oxidative damage", "setting": "[4]; 0.9 μg/mL", "value": "1.00 ± 0.28"}, {"measurement": "oxidative damage", "setting": "[4]; 1.8 μg/mL", "value": "3.00 ± 1.41"}, {"measurement": "oxidative damage", "setting": "[4]; 7.2 μg/mL", "value": "3.00 ± 1.41"}, {"measurement": "oxidative damage", "setting": "[4]; 14.4 μg/mL", "value": "3.00 ± 1.41"}, {"measurement": "oxidative damage", "setting": "[4]; 32 μg/mL", "value": "1.50 ± 0.70"}, {"measurement": "oxidative damage", "setting": "[4]; 64 μg/mL", "value": "2.50 ± 0.70"}, {"measurement": "oxidative damage", "setting": "[4]; 128 μg/mL", "value": "2.50 ± 0.70"}, {"measurement": "oxidative damage", "setting": "[4]; 3.6 mg/mL", "value": "2.50 ± 0.70"}, {"measurement": "oxidative damage", "setting": "[4]; 256 mg/mL", "value": "2.00 ± 1.41"}, {"measurement": "oxidative damage", "setting": "[4]; 500 mg/mL", "value": "2.00 ± 0.24"}, {"measurement": "oxidative damage", "setting": "[5]; 0.9 μg/mL", "value": "2.00 ± 1.41"}, {"measurement": "oxidative damage", "setting": "[5]; 1.8 μg/mL", "value": "2.50 ± 0.70"}, {"measurement": "oxidative damage", "setting": "[5]; 7.2 μg/mL", "value": "3.00 ± 1.41"}, {"measurement": "oxidative damage", "setting": "[5]; 14.4 μg/mL", "value": "3.00 ± 0.54"}, {"measurement": "oxidative damage", "setting": "[5]; 32 μg/mL", "value": "4.50 ± 0.70"}, {"measurement": "oxidative damage", "setting": "[5]; 64 μg/mL", "value": "2.50 ± 0.70"}, {"measurement": "oxidative damage", "setting": "[5]; 128 μg/mL", "value": "3.00 ± 1.41"}, {"measurement": "oxidative damage", "setting": "[5]; 3.6 mg/mL", "value": "2.50 ± 0.70"}, {"measurement": "oxidative damage", "setting": "[5]; 256 mg/mL", "value": "2.50 ± 0.70"}, {"measurement": "oxidative damage", "setting": "[5]; 500 mg/mL", "value": "2.50 ± 0.70"}, {"measurement": "oxidative damage", "setting": "[6]; 0.9 μg/mL", "value": "1.50 ± 0.70"}, {"measurement": "oxidative damage", "setting": "[6]; 1.8 μg/mL", "value": "2.50 ± 0.70"}, {"measurement": "oxidative damage", "setting": "[6]; 7.2 μg/mL", "value": "2.50 ± 0.70"}, {"measurement": "oxidative damage", "setting": "[6]; 14.4 μg/mL", "value": "3.00 ± 0.54"}, {"measurement": "oxidative damage", "setting": "[6]; 32 μg/mL", "value": "3.50 ± 0.70"}, {"measurement": "oxidative damage", "setting": "[6]; 64 μg/mL", "value": "3.00 ± 1.41"}, {"measurement": "oxidative damage", "setting": "[6]; 128 μg/mL", "value": "3.00 ± 1.41"}, {"measurement": "oxidative damage", "setting": "[6]; 3.6 mg/mL", "value": "4.00 ± 1.2"}, {"measurement": "oxidative damage", "setting": "[6]; 256 mg/mL", "value": "1.50 ± 0.70"}, {"measurement": "oxidative damage", "setting": "[6]; 500 mg/mL", "value": "2.50 ± 0.70"}, {"measurement": "oxidative damage", "setting": "[7]; 0.9 μg/mL", "value": "2.50 ± 2.10"}, {"measurement": "oxidative damage", "setting": "[7]; 1.8 μg/mL", "value": "2.50 ± 0.70"}, {"measurement": "oxidative damage", "setting": "[7]; 7.2 μg/mL", "value": "3.00 ± 1.41"}, {"measurement": "oxidative damage", "setting": "[7]; 14.4 μg/mL", "value": "3.00 ± 1.41"}, {"measurement": "oxidative damage", "setting": "[7]; 32 μg/mL", "value": "3.50 ± 0.70"}, {"measurement": "oxidative damage", "setting": "[7]; 64 μg/mL", "value": "3.00 ± 1.41"}, {"measurement": "oxidative damage", "setting": "[7]; 128 μg/mL", "value": "2.50 ± 0.70"}, {"measurement": "oxidative damage", "setting": "[7]; 256 μg/mL", "value": "3.00 ± 1.41"}, {"measurement": "oxidative damage", "setting": "[7]; 3.6 mg/mL", "value": "3.00 ± 1.41"}, {"measurement": "oxidative damage", "setting": "[7]; 500 mg/mL", "value": "2.50 ± 0.70"}, {"measurement": "percentage modulation of oxidative damage caused by the stressor H2O2", "setting": "[8]; all strains and concentrations tested", "value": "more than 60%"}, {"measurement": "induction of oxidative damage", "setting": "[8]; any concentration, any of the tested S. cerevisiae strains", "value": "did not induce oxidative damage"}]}
{"smiles": "OO", "note": "[H2O2, hydrogen peroxide, reference compound]", "values": [{"measurement": "oxidative damage", "setting": "[2]; 10 mM, positive control", "value": "30.75 ± 5.0^∗∗"}, {"measurement": "oxidative damage", "setting": "[3]; 10 mM, positive control", "value": "25.5 ± 4.2^∗∗"}, {"measurement": "oxidative damage", "setting": "[4]; 10 mM, positive control", "value": "25.25 ± 6.18^∗∗"}, {"measurement": "oxidative damage", "setting": "[5]; 10 mM, positive control", "value": "27.00 ± 5.09^∗∗"}, {"measurement": "oxidative damage", "setting": "[6]; 10 mM, positive control", "value": "24.25 ± 4.03^∗∗"}, {"measurement": "oxidative damage", "setting": "[7]; 10 mM, positive control", "value": "22.25 ± 4.57^∗∗"}]}
